# According to ChEMBL document CHEMBL4321833, “Sugar Kick Prevents Memory Impairment” (J Med Chem, 2019):
# How the values were obtained:
# Protein O-GlcNAcase = target: T1, Protein O-GlcNAcase (Homo sapiens, UniProt O60502); experiment: Inhibition of human O-GlcNAcase
# T1 sequence (O60502 whole entry): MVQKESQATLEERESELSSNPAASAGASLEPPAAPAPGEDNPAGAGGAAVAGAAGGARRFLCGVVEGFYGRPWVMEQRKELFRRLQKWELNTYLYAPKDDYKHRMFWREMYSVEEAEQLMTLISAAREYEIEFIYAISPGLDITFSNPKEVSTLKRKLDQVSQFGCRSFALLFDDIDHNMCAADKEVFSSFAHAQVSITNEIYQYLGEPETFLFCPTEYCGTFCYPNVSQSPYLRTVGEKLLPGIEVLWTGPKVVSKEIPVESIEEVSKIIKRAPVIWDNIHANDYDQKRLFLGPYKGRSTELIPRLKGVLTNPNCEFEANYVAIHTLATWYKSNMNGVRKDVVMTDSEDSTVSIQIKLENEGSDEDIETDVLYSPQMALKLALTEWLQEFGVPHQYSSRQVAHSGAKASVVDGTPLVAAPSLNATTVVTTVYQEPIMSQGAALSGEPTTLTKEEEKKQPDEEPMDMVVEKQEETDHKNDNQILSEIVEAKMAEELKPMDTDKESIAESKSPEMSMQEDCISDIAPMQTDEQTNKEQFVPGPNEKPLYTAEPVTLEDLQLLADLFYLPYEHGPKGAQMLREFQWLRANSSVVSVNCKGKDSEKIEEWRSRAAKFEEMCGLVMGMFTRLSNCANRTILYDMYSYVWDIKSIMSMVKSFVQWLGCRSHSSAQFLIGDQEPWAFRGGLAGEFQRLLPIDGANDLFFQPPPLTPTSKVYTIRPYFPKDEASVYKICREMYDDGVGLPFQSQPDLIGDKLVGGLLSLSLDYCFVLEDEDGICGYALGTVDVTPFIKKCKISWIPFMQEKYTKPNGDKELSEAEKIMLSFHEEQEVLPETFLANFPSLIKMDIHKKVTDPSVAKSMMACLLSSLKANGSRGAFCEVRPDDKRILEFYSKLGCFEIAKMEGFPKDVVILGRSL
# [1] = Apparent permeability of the compound; assay type: ADME; conditions: not told
smiles,measurement,setting,value
CCNC1=N[C@@H]2[C@@H](O)[C@H](O)[C@@H](C(F)F)O[C@@H]2S1,IC50,Protein O-GlcNAcase,7.9 nM
same,Papp,[1],6.4 ×10⁻⁶ cm/s
